Test results as given in PMC5605686, “Ang-(1-7) is an endogenous β-arrestin-biased agonist of the AT1 receptor with protective action in cardiac hypertrophy” (Scientific Reports, 2017).
Read-outs that look alike come from different tables or passages of the source. Blank lines part the entries; values can stand above or below the molecule they belong to.

What was measured:
[1] = target: T1, AT1R (Homo sapiens, UniProt P30556); assay: Competition binding assay against [3H]AngII in whole HEK293T cells transiently expressing the AT1R
T1 construct: expressed in transfected cells; host or cells: HEK293T
T1 sequence (P30556 1-359): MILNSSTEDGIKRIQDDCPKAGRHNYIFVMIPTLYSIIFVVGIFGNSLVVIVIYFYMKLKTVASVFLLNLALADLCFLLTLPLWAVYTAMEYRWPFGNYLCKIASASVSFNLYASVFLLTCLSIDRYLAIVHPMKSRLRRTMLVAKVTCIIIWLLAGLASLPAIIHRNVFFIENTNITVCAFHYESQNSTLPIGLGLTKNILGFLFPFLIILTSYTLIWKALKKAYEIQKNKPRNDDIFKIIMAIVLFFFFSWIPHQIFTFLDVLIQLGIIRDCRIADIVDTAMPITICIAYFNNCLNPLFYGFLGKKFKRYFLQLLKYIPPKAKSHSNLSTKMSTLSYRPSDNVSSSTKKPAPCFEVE
Description: (§1) HEK293T cells were cultured in DMEM supplemented with 10% heat-inactivated fetal bovine serum and 100 U/mL penicillin/streptomycin at 37 °C under 5% CO2. Cells were seeded in 100-mm dishes and 48 hours before the experiments, transiently transfected with the AT1R (alone or in combination with BRET-based biosensors). Transient transfections were performed using 25 kDa linear polyethylenimine (PEI – Polysciences, Warrington, PA, USA) at a ratio of 3:1 PEI/DNA. The total amount of transfected DNA was kept constant (10 μg/dish) by the addition of salmon sperm DNA.
Binding assays were performed in whole HEK293T cells at 48 hours after transfection. Twenty-four hours before the experiment, transfected cells were transferred to 24-well plates, treated with poly-L-lysine, and then incubated overnight at 37 °C, in a 5% CO2 environment. […] Samples were collected and mixed with 3 mL of scintillation liquid, and radioactivity was measured using a Liquid Scintillation Counter (Packard Tri-Carb 2100TR – PerkinElmer).

[2] = system: isoproterenol-induced cardiac hypertrophy; assay: Isoproterenol-induced cardiac hypertrophy in rats (HW/BW ratio, left ventricular wall thickness); type: in vivo, Wistar rats; settings: 7 days
Description: (§2) The isoproterenol-induced cardiac hypertrophy experimental model was chosen aiming to avoid any involvement of the RAS, as it is known that other models such as pressure-overload, SHR, or mRen2 involve RAS components[50],[60],[61]. Cardiac hypertrophy was induced in male, 6 weeks-old Wistar rats by administration of Isoproterenol [(Iso) 2 mg/kg per day, i.p. diluted in saline, for 7 days]. All experimental protocols were performed in accordance with the Brazilian Council for Control of Animal Experimentation - “Conselho Nacional de Controle de Experimentação Animal” (CONCEA), Brazil; and approved by the Animal Ethical Committee from the Ribeirão Preto Medical School, University of São Paulo (CEUA).
(§3) Rats receiving Iso were randomly submitted to treatment for 7 days with either vehicle, Ang-(1-7) [24 μg/kg per hour, via ALZET® osmotic minipumps (Durect, Cupertino, CA, USA)], Ang-(1-7) plus Losartan (10 mg/kg per day orally), Ang-(1-7) plus A779 (744 μg/kg per day i.p.), or Ang-(1-7) plus Losartan plus A779 (same doses as described). Doses and administration methods of drugs were based in previously published literature[62]–[66].
Cardiac hypertrophy was confirmed by cardiac mass and histomorphometric analyses. To determine cardiac mass, hearts were removed, dried and weighted. Heart weight (HW) was normalized by the body weight (BW) (HW/BW*1000). For histomorphometric analysis, hearts were cut transversely, fixed in paraformaldehyde (4%) for 24 hours, and kept in ethanol (70%) until dehydration, which consisted in sequential washes with 70, 80, 90 and 100% ethanol. Samples were cleared in xylene and embedded in paraffin. Transversal sections (6 µm) were obtained from the cardiac samples at intervals of 40 µm and stained with hematoxylin and eosin. Images were captured using an Olympus BK 50 microscope (Olympus Corporation of the Americas, Center Valley, PA, USA) equipped with a SPOT RT3 digital camera (Diagnostic Instruments, Inc., Sterling Heights, MI, USA) and measured with ImageJ software (NIH, USA).

[3] = target: T1, AT1R; assay: ERK1/2 phosphorylation by Western blotting in cells transiently expressing the AT1R; type: cell-based; settings: 1 μM, 2-30 minutes, compared to AngII
Description: Cells transiently expressing the AT1R were seeded on 6-well plates in fully supplemented DMEM and kept at 37 °C. […] Cells were lysed with lysis buffer consisting of 10 mM Tris-HCl, pH 7.5, 150 mM NaCl, 1 mM EDTA, 1mM EGTA, 0.1% SDS, 1% Nonidet P-40 and the following protease inhibitors: 2 mM PMSF, 100 µg/mL SBTI, 10 µg/mL leupeptin, 100 µg/mL aprotinin, 10 mM benzamidin and 2 mM sodium orthovanadate. Following homogenization at 4 °C, during 30 minutes, cellular lysates were centrifuged for 15 minutes (18,000 × g) at 4 °C and total protein from the supernatants was quantified by the Bradford method (Bio-Rad, Hercules, CA). After that, 50 µg of total protein were resolved in SDS-PAGE, transferred to nitrocellulose membranes and Western blotting was performed against total ERK (tERK) and phosphorylated ERK (pERK) (both antibodies from Santa Cruz Biotechnology, Santa Cruz, CA, USA; and molecular size markers from ThermoFisher Scientific, Catalog Number 26610). Blots were captured with ImageQuant 350 (GE Healthcare, Piscataway, NJ, USA). Densitometric values obtained after analyses with ImageJ program (http://rsb.info.nhi.gov/ij/) were used to calculate a ratio pERK/tERK, and corresponding results were plotted using GraphPad software (GraphPad, San Diego, CA) as fold of increase over the basal value obtained with vehicle-treated control.

[4] = target: T1, AT1R; assay: Intramolecular BRET assay of β-arrestin 1 conformational changes (RLucII-β-arr1-GFP10); type: cell-based
Description: (§4) Receptor promoted activation of β-arrestin results in a conformational rearrangement that can be monitored by BRET-based double brilliance biosensors assessing changes in BRET between RLucII and GFP10 fused respectively to the N- and C-termini of β-arrestins[35]–[37]. Therefore, to assess whether the recruitment of β-arrestins to the AT1R by Ang-(1-7) leads to activation, we monitored the agonist-promoted change in the intramolecular BRET.
(§5) HEK293T cells were cultured in DMEM supplemented with 10% heat-inactivated fetal bovine serum and 100 U/mL penicillin/streptomycin at 37 °C under 5% CO2. […]
(§6) HEK293T cells transiently expressing the AT1R (or AT1R-GFP) and BRET-based biosensors (Gαq-RLucII or Gαi3-RLucII, Gβ1 and Gγ1-GFP10; RLucII-β-arr1-GFP10; RLucII-β-arr2-GFP10; β-arr1-RLucII; β-arr2-RLucII) were washed once with PBS, detached, and seeded in 96-well white plates (OptiPlate – PerkinElmer, Waltham, MA, USA). Following agonist stimulation, cells were incubated at 37 °C and the luciferase substrate (coelenterazine H for BRET1 or coelenterazine 400a for BRET2 – Biotium, Hayward, CA, USA) was added 5 min before reading BRET in a Victor^TM X Light Luminescence microplate reader (PerkinElmer) equipped with different donor/acceptor emission filter sets. […]

[5] = system: AT1R; assay: BRET assay of β-arrestin 1 recruitment to AT1R-GFP (β-arr1-RLucII); type: cell-based; settings: for β-arr1 recruitment Emax (%): percentage of the maximum values obtained for AngII
Description: as §1
(§7) HEK293T cells transiently expressing the AT1R (or AT1R-GFP) and BRET-based biosensors (Gαq-RLucII or Gαi3-RLucII, Gβ1 and Gγ1-GFP10; RLucII-β-arr1-GFP10; RLucII-β-arr2-GFP10; β-arr1-RLucII; β-arr2-RLucII) were washed once with PBS, detached, and seeded in 96-well white plates (OptiPlate – PerkinElmer, Waltham, MA, USA). Following agonist stimulation, cells were incubated at 37 °C and the luciferase substrate (coelenterazine H for BRET1 or coelenterazine 400a for BRET2 – Biotium, Hayward, CA, USA) was added 5 min before reading BRET in a Victor^TM X Light Luminescence microplate reader (PerkinElmer) equipped with different donor/acceptor emission filter sets. The BRET signal was determined as the ratio of light emitted by fluorescently-labeled biosensors, detected with energy acceptor filters (530 ± 20 nm for BRET1 or 515 ± 20 nm for BRET2), and light emitted by RLucII-tagged biosensors, detected with energy donor filters (480 ± 20 nm for BRET[1] or 410 ± 40 nm for BRET2). The specific BRET signal was defined as the difference between the total BRET signals and the one obtained with RLucII alone.

[6] = system: isoproterenol-induced cardiac hypertrophy; assay: End-diastolic pressure (EDP) in rats with isoproterenol-induced cardiac hypertrophy; type: in vivo, Wistar rats; settings: 24 μg/kg per hour, osmotic mini-pump, 7 days, concomitantly with isoproterenol
Description: as §2
as §3, with “Doses and administration methods of drugs were based in previously published literature[62]–[66].” left out
Rats were anesthetized with isoflurane (5% for induction and 2–2.5% to maintain anesthesia). […] After stabilization, signals were continuously recorded using a pressure-volume conductance system (MPVS, Millar Instruments) connected to a Power Lab/4SP (ADI Instruments, Sydney, NSW, Australia) feeding the digital signal to an […].

[7] = target: T1, AT1R; assay: Intramolecular BRET assay of β-arrestin 2 conformational changes (RLucII-β-arr2-GFP10); type: cell-based
Description: as §4, §5, §6

[8] = target: T1, AT1R; assay: BRET-based biosensor assay of Gq activation (Gαq-RLucII / Gγ1-GFP10) in HEK293T cells expressing AT1R; type: cell-based
Description: as §1, §6

[9] = target: T1, AT1R; assay: Intracellular calcium mobilization assay (FLIPR Calcium 5) in HEK293T cells expressing AT1R; type: cell-based
Description: Cells were seeded in 100-mm dishes and 48 hours before the experiments, transiently transfected with the AT1R (alone or in combination with BRET-based biosensors). Transient transfections were performed using 25 kDa linear polyethylenimine (PEI – Polysciences, Warrington, PA, USA) at a ratio of 3:1 PEI/DNA. The total amount of transfected DNA was kept constant (10 μg/dish) by the addition of salmon sperm DNA. Twenty-four hours after transfection, HEK293T cells were washed once with PBS, detached, and seeded in 96-well clear-bottom black plates (Cellstar – Greiner Bio-One, Monroe, NC, USA) precoated with poly-L-lysine (Sigma-Aldrich, St. Louis, MO, USA). Cells were cultured in supplemented DMEM without phenol red (Gibco) at a density of 50,000 cells/well for an additional 24-hour period. […] To provide a baseline level, fluorescence was recorded every 2 seconds during 16 seconds. Following agonist stimulation, fluorescence continued to be recorded every 2 seconds for 90 seconds.

[10] = system: AT1R; assay: BRET assay of β-arrestin 2 recruitment to AT1R-GFP (β-arr2-RLucII); type: cell-based; settings: for β-arr2 recruitment Emax (%): percentage of the maximum values obtained for AngII
Description: as §1, §7

[11] = target: T1, AT1R; assay: BRET-based biosensor assay of Gi3 activation in HEK293T cells expressing AT1R; type: cell-based
Description: as §1, §6

[12] = target: T2, angiotensin II type 1 receptor (UniProt P30556 1-359); assay: cell-based or functional assay
T2 sequence (looked up): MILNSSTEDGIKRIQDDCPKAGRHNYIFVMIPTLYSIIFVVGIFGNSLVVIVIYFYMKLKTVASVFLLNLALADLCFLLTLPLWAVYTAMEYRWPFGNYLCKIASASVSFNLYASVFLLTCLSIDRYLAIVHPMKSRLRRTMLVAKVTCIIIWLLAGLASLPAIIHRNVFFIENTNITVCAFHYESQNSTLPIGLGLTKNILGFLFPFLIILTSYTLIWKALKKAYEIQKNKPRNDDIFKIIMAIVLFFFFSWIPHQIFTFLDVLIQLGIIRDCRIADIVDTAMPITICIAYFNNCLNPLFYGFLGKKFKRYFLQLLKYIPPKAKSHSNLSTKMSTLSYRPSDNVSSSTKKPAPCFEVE

[13] = target: T3, AT1R-GFP (UniProt P30556 1-359); assay: cell-based or functional assay
T3 sequence (looked up): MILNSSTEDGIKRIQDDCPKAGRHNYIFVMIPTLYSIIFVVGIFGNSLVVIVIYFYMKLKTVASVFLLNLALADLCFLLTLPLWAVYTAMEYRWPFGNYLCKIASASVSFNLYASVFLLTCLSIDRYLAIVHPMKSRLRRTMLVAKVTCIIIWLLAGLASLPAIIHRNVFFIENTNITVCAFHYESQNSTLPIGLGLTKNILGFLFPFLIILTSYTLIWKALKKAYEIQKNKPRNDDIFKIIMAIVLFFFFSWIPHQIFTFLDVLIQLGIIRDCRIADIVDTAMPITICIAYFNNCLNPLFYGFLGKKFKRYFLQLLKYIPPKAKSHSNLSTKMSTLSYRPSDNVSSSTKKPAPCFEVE

[14] = target: T2, angiotensin II type 1 receptor; assay: radioligand binding; competition against 0.5 nM [^3H]AngII on whole HEK293T cells transiently expressing AT1R; 24 h at 4 °C; 25 mM Tris-HCl pH 7.4, 5 mM MgCl2, 0.1% BSA, 100 μg/mL bacitracin; settings: one partner purified
[15] = 24 μg/kg per hour, osmotic mini-pump, concomitantly with isoproterenol

Ki ([1]; competition against 0.5 nM [3H]AngII, HEK293T cells expressing AT1R, mean ± SEM, read-out: Binding pKi (converted)): 219 nM
Ki ([1]; competition binding against [3H]AngII, read-out: affinity for the AT1R): ~200 nM
EC50 ([4]; intramolecular BRET, mean ± SEM, read-out: β-arr1 conf. changes pEC50 (converted)): 245 nM
Emax ([4]; read-out: β-arr1 conf. changes Emax (%)): 69.1%
β-arr1 recruitment pEC50 ([5]; BRET, mean ± SEM): 6.38 ± 0.14
EC50 ([7]; intramolecular BRET, mean ± SEM, read-out: β-arr2 conf. changes pEC50 (converted)): 1380 nM
Emax ([7]; read-out: β-arr2 conf. changes Emax (%)): 64.4%
Emax ([8]; HEK-293T): 12.8%
Emax ([9]; HEK-293T, read-out: Ca2+ mobilization Emax (%)): 24.8%
β-arr2 recruitment pEC50 ([10]; BRET, mean ± SEM): 6.56 ± 0.09
Gi3 activation, in words [11]: did not trigger Gi3 activation
Molecule: CC[C@H](C)[C@H](NC(=O)[C@H](Cc1ccc(O)cc1)NC(=O)[C@@H](NC(=O)[C@H](CCCNC(=N)N)NC(=O)[C@@H](N)CC(=O)O)C(C)C)C(=O)N[C@@H](Cc1c[nH]cn1)C(=O)N1CCC[C@H]1C(=O)O [Ang-(1-7), Asp-Arg-Val-Tyr-Ile-His-Pro]
cardiac hypertrophy (left ventricular wall thickness) [2, 15]: partially blocked the development of cardiac hypertrophy
heart weight/body weight (HW/BW) ratio [2, 15]: partially blocked
ERK1/2 phosphorylation [3]: partial agonist resulting in lower and more transient activation
β-arr1 recruitment Emax (%) [5]: 67.8%
β-arr1 recruitment Emax (%) ([5]; listed as Ang1-7): ~70%
end-diastolic pressure (EDP) [6]: completely prevented the increase in EDP
Gq activation (separation of Gαq-RLucII from Gγ1-GFP10), in words ([8]; any of the concentrations tested, HEK293T cells expressing AT1R): did not promote the separation of Gαq-RLucII from Gγ1-GFP10
intracellular Ca2+ mobilization, in words ([9]; concentration-response curve, HEK293T cells expressing AT1R): only a weak increase in intracellular Ca^2+ levels
β-arr2 recruitment Emax (%) [10]: 87.7%
β-arr2 recruitment Emax (%) ([10]; listed as Ang1-7): ~90%

Molecule: CCCCc1nc(Cl)c(CO)n1Cc1ccc(-c2ccccc2-c2nn[nH]n2)cc1 [Losartan, reference compound]
blockade of the effect of Ang-(1-7) on the cardiovascular parameters (HW/BW, wall thickness, EDP) ([2]; co-treatment with Ang-(1-7), 10 mg/kg per day orally): did not prevent the effect of Ang-(1-7)

β-arrestin 1 conformational change (intramolecular BRET, RLucII-β-arr1-GFP10) in HEK293T cells expressing AT1R, pEC50 [12]: 6.61
recruitment of β-arr1-RLucII to AT1R-GFP (BRET), pEC50 of the agonist [13]: 6.38
pKi [14]: 6.66
B1: angiotensin-(1-7) (peptide)
peptide: DRVYIHP
notes: heptapeptide angiotensin-(1-7), cut from AngII by ACE2 or from AngI by endopeptidases; printed in three-letter code; also called Ang-(1-7); Ang1-7
